Experimental data published in patent EP2457906A1, “Derivatives of 1,2,4-benzothiadiazine dioxide, their preparation and use as allosteric modulators of the AMPA receptor” (Universita'del Salento, priority 2010, dated 2012).

System: AMPA-kainate receptors
Experiment: Patch-clamp (whole-cell voltage-clamp) recording of kainate-evoked currents in primary cultures of cortical neurons
Type: cell-based
Settings: rat cortical neurons; for type of allosteric modulation of the AMPA receptor: effect on current induced by Kainate; for Variation in the current induced by Kainate, %: compound at 10 µM, mean ± SE (n = 4-6)
Description: The pharmacological studies were conducted using the patch-clamp technique on primary cultures of cortical neurons.
The primary neuronal cultures were obtained from 1-day-old Sprague-Dawley rats. The cells were dispersed with trypsin (0.24 mg/ml) and plated out at a density of 10^6 cells/ml on 35mm Petri dishes pretreated with poly-L-lysine (10 µg/ml). The cells were cultivated in Eagle's Basal Medium with the addition of 10% foetal calf serum, 2 mM glutamine and 100 µg/ml gentamicin, and stored in an incubator at 37°C in 5% carbon dioxide.
To prevent astroglial proliferation, cytosine arabinofuranoside was added (1-10 µM) to the cultures 24h after plating out.
The patch-clamp recordings were performed on a single cell after 7 days in culture using the voltage-clamp technique in whole-cell configuration (Hamill OP, Marty A, Neher E, Sakmann B, Sigworth FJ (1981): Improved patchclamp techniques for high-resolution current recording from cell and cell-free membrane patches. Pflugers Arch, 85-100). […] The currents were amplified with an Axopatch 1 D amplifier (Axon Instruments, Foster City, CA), filtered at 5 kHz and digitised at 10 kHz using the pClamp software (Axon Instruments, Foster City, CA).
The intracellular solutions contained: KCI 140mM, MgCl2 3mM, EGTA 5mM, HEPES 5mM, ATP-Na 2mM, and were brought to pH 7.3 with KOH. The cells were continuously perfused with an external solution containing: NaCl 145mM, KCI 5mM, CaCl2 1mM, HEPES 5mM, glucose 5mM, saccharose 20Mm, and brought to pH 7.4 with NaOH.
The compounds tested were dissolved in DMSO and diluted to the final concentration in the extracellular solution. (The DMSO in the final concentration is less than 0.1%.) The kainate (SIGMA) was dissolved in the extracellular solution. All of the substances were applied directly by gravity through a "Y-tube" perfusion system (Murase K, Ryu PD, Randic M (1989). Excitatory and inhibitory amino acids and peptide-induced responses in acutely isolated rat spinal dorsal horn neurons. Neurosci Lett 103, 56-63).
The electrophysiological data was analysed using the software pCLAMP 6.3 (Axon Instruments).
The compounds according to the invention have proven to be potent allosteric modulators of the response mediated by AMPA-kainate receptors. […] The values are expressed as the mean ± SE (n = 4-6).

| Structure (SMILES) | EC50 (potentiation of currents induced by Kainate, calculated from dose/response data of Figure 1) [nM] | type of allosteric modulation of the AMPA receptor (10 µM) | increase of the current induced by Kainate (10 µM, text statement on the data of Table 1) | EC2X (i.e. the concentration at which the AMPA receptor currents are potentiated 2 times) (calculated from dose/response data of Figure 1) [nM] | Variation in the current induced by Kainate, % [%] |
| --- | --- | --- | --- | --- | --- |
| CC1Nc2c(-c3ccoc3)cc(Cl)cc2S(=O)(=O)N1 (stereo not drawn) [(1), 7-chloro-5-(3-furyl)-3-methyl-3,4-dihydro-2H-1,2,4-benzothiadiazine 1,1-dioxide] | 1100 | positive allosteric modulator | around 360 times | 500 | 358±80 |
| CC1Nc2c(-c3ccsc3)cc(Cl)cc2S(=O)(=O)N1 (stereo not drawn) [(2), 7-chloro-3-methyl-5-thien-3-yl-3,4-dihydro-2H-1,2,4-benzothiadiazine 1,1-dioxide] | – | positive allosteric modulator | – | – | 214±41 |
| CC1Nc2c(-c3ccco3)cc(Cl)cc2S(=O)(=O)N1 (stereo not drawn) [(3), 7-chloro-5-(2-furyl)-3-methyl-3,4-dihydro-2H-1,2,4-benzothiadiazine 1,1-dioxide] | – | positive allosteric modulator | – | – | 80±16 |
| CCC1Nc2c(-c3ccco3)cc(Cl)cc2S(=O)(=O)N1 (stereo not drawn) [(4), 7-chloro-5-(2-furyl)-3-ethyl-3,4-dihydro-2H-1,2,4-benzothiadiazine 1,1-dioxide] | – | negative allosteric modulators | – | – | -32±12 |
| O=S1(=O)NCNc2c(-c3ccco3)cc(Cl)cc21 [(5), 7-chloro-5-(2-furyl)-3,4-dihydro-2H-1,2,4-benzothiadiazine 1,1-dioxide] | – | positive allosteric modulator | – | – | 20±5 |
| CC1=Nc2c(-c3ccco3)cc(Cl)cc2S(=O)(=O)N1 [(6), 7-chloro-5-(2-furyl)-3-methyl-1,2,4-benzothiadiazine 1,1-dioxide] | – | negative allosteric modulators | – | – | -21±9 |
